In US9790169B2, “IDO inhibitors” (BRISTOL-MYERS SQUIBB COMPANY, priority 2015, dated 2017) one finds IC50 data, which are given here for 36 molecules.

In general, IC50 refers to the concentration that gives 50% inhibition. Higher therefore signals weaker potency in that assay.

human IDO1, sequence (P14902 whole entry): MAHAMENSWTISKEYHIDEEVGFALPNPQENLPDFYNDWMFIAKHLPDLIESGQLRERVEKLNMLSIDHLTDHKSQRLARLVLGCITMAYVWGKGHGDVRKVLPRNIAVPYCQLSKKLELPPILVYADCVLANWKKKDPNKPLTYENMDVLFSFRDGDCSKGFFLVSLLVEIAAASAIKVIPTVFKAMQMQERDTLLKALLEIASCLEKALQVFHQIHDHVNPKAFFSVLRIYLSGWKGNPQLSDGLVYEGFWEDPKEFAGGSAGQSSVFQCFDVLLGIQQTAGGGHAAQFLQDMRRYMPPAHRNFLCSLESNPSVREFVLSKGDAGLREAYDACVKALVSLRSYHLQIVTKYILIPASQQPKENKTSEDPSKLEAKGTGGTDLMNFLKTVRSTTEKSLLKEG

This experiment deals with human IDO1 (Homo sapiens, UniProt P14902). As to the kind of experiment: Assessment of human IDO-1 inhibitory activity in Hela cells (Interferon-gamma stimulated HeLa cells, Ehrlich reagent, absorbance 490 nm). Further details: endogenous in cells; host or cells: HeLa cells stimulated with interferon-gamma. The conditions noted are these: Hela Human IDO-1 cellular assay. It counts as cell-based. The essentials:
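IDO activity induced by 18 h IFN-γ (human 10 ng/ml or murine 5 ng/ml, final) after 1 h compound pre-treatment of HeLa cells at 37 °C. Supernatant kynurenine detected via Ehrlich reagent absorbance at 490 nm following 3% TCA at 50 °C; IC50 set against no-IFN-γ and untreated-stimulated controls.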
On to `CCOc1ncc(Nc2cc(C(CC)CC(=O)O)c(F)cc2N(CC)C2CCOCC2)cn1` (single isomer, unassigned) [Example 860, 3-(5-((2-ethoxy-pyrimidin-5-yl)amino)-4-(ethyl(tetra-hydro-2H-pyran-4-yl)amino)-2-fluorophenyl) pentanoic acid], for which the IC50 was less than 5 nM.

Molecule `CCOc1ccc(Nc2cc(C(C)CC(=O)O)ccc2N(CC)C2CCOCC2)nn1` (single isomer, unassigned) [Example 624, 3-(3-((6-ethoxypyridazin-3-yl)amino)-4-(ethyl (tetrahydro-2H-pyran-4-yl)amino)phenyl)butanoic acid] came in with a half-maximal inhibitory concentration (IC50) of more than 50 nM.

`CC[C@@H](CC(=O)O)c1ccc(N(CC)C2CCOCC2)c(Nc2ccc(N(C)C)nc2)c1` (single isomer, unassigned) [Example 463] came in with an IC50 of more than 50 nM.

As for `CCN(c1ccc([C@H](CNS(=O)(=O)C(F)(F)F)COC)cc1Nc1ccc(C#N)cc1)C1CCOCC1` [Example 1342, (R)-N-(2-(3-((4-cyanophenyl)amino)-4-(ethyl(tetrahydro-2H-pyran-4-yl)amino)phenyl)-3-methoxypropyl)-1,1,1-trifluoromethanesulfonamide], the IC50 was less than 50 nM.

In turn, `CCOc1ncc(Nc2cc(C(CC)CC(=O)O)cnc2N(CC)C2CCOCC2)cn1` (racemic) [Example 1378] had a 50% inhibitory concentration (IC50) of less than 5 nM.

`COCC(CC(=O)O)c1cc(F)c(N(CC(C)C)CC(C)C)c(Nc2ccc3nc(C)sc3c2)c1` (single isomer, unassigned) [Example 925, 3-(4-(diisobutylamino)-3-fluoro-5-((2-methylbenzo [d]thiazol-6-yl)amino)phenyl)-4-methoxybutanoic acid]: the IC50 was less than 50 nM.

As for `CCN(c1ccc([C@@H](COC)CC(=O)O)cc1Nc1ccc(S(=O)(=O)CC)cc1)C1CCOCC1` (single isomer, unassigned) [Example 386], the IC50 was more than 50 nM.

As for `CCC1COCCN1c1ccc([C@@H](COC)CC(=O)O)cc1Nc1ccc(C#N)c(F)c1` (single isomer, unassigned) [Example 1282], the IC50 is more than 50 nM.

In turn, `CCc1ncc(Nc2cc([C@@H](CC)CC(=O)O)ccc2N(CC)C2CCOCC2)cn1` (single isomer, unassigned) [Example 1362] registered an IC50 of less than 5 nM.

`CCCN(c1ccc([C@@H](CC)CC(=O)O)cc1NC(=O)Nc1ccc(C#N)cc1)C1CCOCC1` (single isomer, unassigned) [Example 545] gave an IC50 of less than 50 nM.

For the molecule `CCN(c1ccc([C@@H](COC)CC(=O)O)cc1Nc1cccc(C#N)c1)C1CCOCC1` (single isomer, unassigned) [Example 368], the IC50 was less than 50 nM.

In turn, `CCC(CC(=O)O)c1ccc(N2C[C@@H]3C[C@H]2CN3C(=O)OC(C)(C)C)c(Nc2ccc(C#N)cc2)c1` (single isomer, unassigned) [Example 443 Diastereomer 1] showed an IC50 of less than 5 nM.

Take `CCOc1ncc(Nc2cc([C@H](CC)CNS(=O)(=O)C(F)(F)F)ccc2N(CC)C2CCOCC2)cn1` [Example 1329, (S)-N-(2-(3-((2-ethoxypyrimidin-5-yl)amino)-4-(ethyl(tetrahydro-2H-pyran-4-yl)amino)phenyl)butyl)-1,1,1-trifluoromethanesulfonamide]: the IC50 is less than 5 nM.

`COCC(CC(=O)O)c1ccc(N(C)C2CCOCC2)c(NC(=O)Nc2ccc(Cl)cc2F)c1` (single isomer, unassigned) [Example 879, 3-(3-(3-(4-Chloro-2-fluorophenyl)ureido)-4-(methyl(tetrahydro-2H-pyran-4-yl)amino)phenyl)-4-methoxybutanoic acid]: the IC50 is more than 50 nM.

In turn, `CCC(CC(=O)O)c1ccc(N2C[C@@H]3C[C@H]2CN3C(=O)OC(C)(C)C)c(Nc2ccc(C#N)cc2)c1` (single isomer, unassigned) [Example 443 Diastereomer 2] registered an IC50 of less than 50 nM.

As for `CCCN(c1ccc([C@H](COC)CC(=O)O)cc1Nc1ccc(OC)nc1)C1CCOCC1` (single isomer, unassigned) [Example 575], the IC50 was less than 50 nM.

The molecule `COCC(CC(=O)O)c1ccc(N(C)C2CCOCC2)c(Nc2ccc(C#N)cc2)c1` (single isomer, unassigned) [Example 873, 3-(3-((4-Cyanophenyl)amino)-4-(methyl(tetrahydro-2H-pyran-4-yl)amino)phenyl)-4-methoxybutanoic acid] returned an IC50 of less than 50 nM.

Consider `CCCN(c1ccc([C@H](COC)CC(=O)O)cc1Nc1ccc(Cl)cc1)C1CCOCC1` (single isomer, unassigned) [Example 574], for which the half-maximal inhibitory concentration (IC50) is less than 5 nM.

`CCCN(c1ccc([C@H](CC)CC(=O)O)cc1NC(=O)Nc1ccc(Cl)cc1F)C1CCOCC1` (single isomer, unassigned) [Example 555] gave an IC50 of less than 5 nM.

As to `CCN(c1cc(F)c([C@@H](COC)CC(=O)O)cc1Nc1ccc(C#N)cc1)C1CCOCC1` (single isomer, unassigned) [Example 843, 3-(5-((4-Cyanophenyl)amino)-4-(ethyl(tetrahydro-2H-pyran-4-yl)amino)-2-fluorophenyl)-4-methoxybutanoic acid], the IC50 is less than 5 nM.

Consider `CCOc1ncc(Nc2cc(C(CC)CC(=O)O)ccc2N2CCNCC2)cn1` (single isomer, unassigned) [Example 672, 3-(3-((2-Ethoxypyrimidin-5-yl)amino)-4-(piperazin-1-yl)phenyl)pentanoic acid], for which the IC50 is more than 50 nM.

`COCC(CC(=O)O)c1ccc(N(CC(F)F)C2CCOCC2)c(Nc2ccc(Cl)cc2)c1` (single isomer, unassigned) [Example 321 Enantiomer 1, 3-(3-((4-Chlorophenyl)amino)-4-((2,2-difluoroethyl)(tetrahydro-2H-pyran-4-yl)amino)phenyl)-4-methoxybutanoic acid] returned an IC50 of less than 5 nM.

`CCN(c1ccc(C(CC(=O)O)C2CC2)cc1NC(=O)Nc1ccc(C)cc1)C1CCOCC1` (single isomer, unassigned) [Example 40 Enantiomer 1, 3-Cyclopropyl-3-(4-(ethyl(tetrahydro-2H-pyran-4-yl)amino)-3-(3-(p-tolyl)ureido)phenyl)propanoic acid]: the concentration for half-maximal inhibition (IC50) is less than 5 nM.

The molecule `CCN(c1ccc([C@@H](CC(=O)O)C(F)(F)F)cc1NC(=O)Nc1ccc(Cl)cc1F)C1CCOCC1` (single isomer, unassigned) [Example 1270] registered a half-inhibitory concentration (IC50) of less than 50 nM.

As to `CCN(c1cc(F)c([C@@H](COC)CC(=O)O)cc1NC(=O)Nc1ccc(Cl)cc1F)C1CCOCC1` (single isomer, unassigned) [Example 848, 3-(5-(3-(4-Chloro-2-fluorophenyl)ureido)-4-(ethyl(tetrahydro-2H-pyran-4-yl)amino)-2-fluorophenyl)-4-methoxybutanoic acid], the IC50 is less than 5 nM.

In turn, `CCN(c1ccc([C@@H](COC)CC(=O)O)cc1Nc1ccc(C#N)cc1)C1CCOCC1` (stereo in doubt) [compound 349, 3-(3-((4-Cyanophenyl)amino)-4-(ethyl(tetrahydro-2H-pyran-4-yl)amino)phenyl)-4-methoxybutanoic acid] showed an IC50 of less than 5 nM.

For the molecule `CCCN(c1ccc(C(C)(C)CC(=O)O)cc1Nc1cnc(OCC)nc1)C1CCS(=O)(=O)CC1` [Example 188, 3-(4-((1,1-dioxidotetrahydro-2H-thiopyran-4-yl)(propyl)amino)-3-((2-ethoxypyrimidin-5-yl)amino)phenyl)-3-methylbutanoic acid], the half-maximal inhibitory concentration (IC50) was more than 50 nM.

In the case of `CCCOc1ncc(Nc2cc(C(C)CC(=O)O)ccc2N(CC)C2CCOCC2)cn1` (single isomer, unassigned) [Example 621, 3-(4-(ethyl(tetrahydro-2H-pyran-4-yl)amino)-3-((2-propoxypyrimidin-5-yl)amino)phenyl)butanoic acid], the IC50 is less than 50 nM.

In turn, `CCC(CC(=O)O)c1ccc(N2CCC(C)CC2)c(Nc2ccc(C#N)cc2)c1` (single isomer, unassigned) [Example 41 Enantiomer 1, 3-(3-((4-Cyanophenyl)amino)-4-(4-methylpiperidin-1-yl)phenyl)pentanoic acid] yielded a 50% inhibitory concentration (IC50) of less than 50 nM.

Turning to `CCCN(c1ccc([C@H](CC)CC(=O)O)cc1Nc1cnc(OC)nc1)C1CCOCC1` (single isomer, unassigned) [Example 551], the IC50 was less than 5 nM.

As for `CCOc1ncc(Nc2cc([C@H](CC)Cc3nnc[nH]3)ccc2N(CC)C2CCOCC2)cn1` [Example 1338, (R)-4-(1-(4H-1,2,4-Triazol-3-yl)butan-2-yl)-N2-(2-ethoxypyrimidin-5-yl)-N1-ethyl-N1-(tetrahydro-2H-pyran-4-yl)benzene-1,2-diamine], the IC50 was less than 50 nM.

In turn, `COCC(CC(=O)O)c1ccc(N(C)C2CCOCC2)c(Nc2ccc(C#N)c(F)c2)c1` (single isomer, unassigned) [Example 875, 3-(3-((4-cyano-3-fluorophenyl)amino)-4-(methyl(tetrahydro-2H-pyran-4-yl)amino)phenyl)-4-methoxybutanoic acid] displayed an IC50 of less than 50 nM.

The molecule `CCN(c1ccc([C@@H](COC)CC(=O)O)cc1NC(=O)Nc1ccc(Cl)cc1Cl)C1CCOCC1` (single isomer, unassigned) [Example 430] came in with an IC50 of less than 50 nM.

Consider `CCOc1ncc(Nc2cc(C(COC)CC(=O)O)ccc2N2CCC(c3ccccc3)CC2)cn1` (single isomer, unassigned) [Example 1354, 3-(3-((2-ethoxypyrimidin-5-yl)amino)-4-(4-phenylpiperidin-1-yl)phenyl)-4-methoxybutanoic acid], for which the IC50 was less than 5 nM.

In turn, “(R)-3-(3-((4-chlorophenyl)amino)-4-((1,1-dioxidotetrahydro-2H- thiopyran-4-yl)(ethyl)amino) phenyl)-4-isopropoxybutanoic acid [Example 330]” showed an IC50 of less than 5 nM.

Molecule `CCN(c1ccc(C(CC)(CC)CC(=O)O)cc1Nc1ccc(C#N)cc1)C1CCOCC1` [Example 27, 3-(3-((4-cyanophenyl)amino)-4-(ethyl(tetrahydro-2H-pyran-4-yl)amino)phenyl)-3-ethylpentanoic acid] displayed an IC50 of less than 5 nM.
